Experimental data as given in PMC8911585, “Unique Properties of Heme Binding of the Porphyromonas gingivalis HmuY Hemophore-like Protein Result from the Evolutionary Adaptation of the Protein Structure” (Molecules, 2022).
Where two headings read alike, the source gives them in different places.

Assays:
HmuY [1] = biological target: T1, HmuY (Porphyromonas gingivalis, UniProt A2I2W2, H134M); assay: biochemical
HmuY [2] = biological target: T1, HmuY; assay: biochemical; remark: listed apart in the source

T1 sequence (A2I2W2 26-216 H134M): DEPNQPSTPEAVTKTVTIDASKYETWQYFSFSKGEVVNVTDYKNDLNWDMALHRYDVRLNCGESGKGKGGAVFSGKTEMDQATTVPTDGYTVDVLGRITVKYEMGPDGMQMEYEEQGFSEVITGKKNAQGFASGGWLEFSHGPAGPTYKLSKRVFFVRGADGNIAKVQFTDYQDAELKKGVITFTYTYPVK

| SMILES | Kd (HmuY [1]) [µM] | Kd (HmuY [2]) [µM] |
| --- | --- | --- |
| C=CC1=C(C)C2=Cc3c(C=C)c(C)c4[n]3[Fe]([Cl])[n]3c(c(C)c(CCC(=O)O)c3=CC3=NC(=C4)C(C)=C3CCC(=O)O)=CC1=N2 [Fe(III)heme] | 12 |  |
| C=CC1=C(C)C2=Cc3c(C=C)c(C)c4[n]3[Fe][n]3c(c(C)c(CCC(=O)O)c3=CC3=NC(=C4)C(C)=C3CCC(=O)O)=CC1=N2 [Fe(II)heme] |  | 0.011 |
